Reference: publication PMC9234961 (Journal of Medicinal Chemistry, 2022)

Key:
GABAA = GABAA (Homo sapiens, UniProt P14867+P18507+P47870); test: SAFETYScan Ion Channel, Opener; format: cell-based; settings: read-out: Max Response
From the text: (§1) Supplement jm1c02175_si_002.xlsx, sheet "SAFETYScan" | column: RC50 (uM); Max Response

HTR3A = molecular target: T1, HTR3A (Homo sapiens, UniProt P46098); test: SAFETYScan Ion Channel, Opener; format: cell-based
T1 sequence (P46098 24-478): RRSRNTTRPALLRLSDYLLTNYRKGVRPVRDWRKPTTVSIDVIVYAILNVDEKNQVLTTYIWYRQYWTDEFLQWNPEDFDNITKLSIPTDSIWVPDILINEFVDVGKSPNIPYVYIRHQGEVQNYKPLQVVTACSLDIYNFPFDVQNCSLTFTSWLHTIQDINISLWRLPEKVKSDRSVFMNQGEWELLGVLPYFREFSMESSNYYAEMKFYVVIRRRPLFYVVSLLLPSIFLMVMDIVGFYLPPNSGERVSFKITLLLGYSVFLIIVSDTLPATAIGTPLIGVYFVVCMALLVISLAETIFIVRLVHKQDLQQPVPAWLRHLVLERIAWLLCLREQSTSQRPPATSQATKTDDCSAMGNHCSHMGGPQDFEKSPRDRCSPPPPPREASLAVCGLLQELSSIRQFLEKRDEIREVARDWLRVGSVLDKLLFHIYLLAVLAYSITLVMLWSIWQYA
From the text: as §1

nAChR(a4/b2) = nAChR(a4/b2) (Homo sapiens, UniProt P17787+P43681); test: SAFETYScan Ion Channel, Opener; format: cell-based
Chain of nAChR(a4/b2) (P43681 29-627 limits assumed): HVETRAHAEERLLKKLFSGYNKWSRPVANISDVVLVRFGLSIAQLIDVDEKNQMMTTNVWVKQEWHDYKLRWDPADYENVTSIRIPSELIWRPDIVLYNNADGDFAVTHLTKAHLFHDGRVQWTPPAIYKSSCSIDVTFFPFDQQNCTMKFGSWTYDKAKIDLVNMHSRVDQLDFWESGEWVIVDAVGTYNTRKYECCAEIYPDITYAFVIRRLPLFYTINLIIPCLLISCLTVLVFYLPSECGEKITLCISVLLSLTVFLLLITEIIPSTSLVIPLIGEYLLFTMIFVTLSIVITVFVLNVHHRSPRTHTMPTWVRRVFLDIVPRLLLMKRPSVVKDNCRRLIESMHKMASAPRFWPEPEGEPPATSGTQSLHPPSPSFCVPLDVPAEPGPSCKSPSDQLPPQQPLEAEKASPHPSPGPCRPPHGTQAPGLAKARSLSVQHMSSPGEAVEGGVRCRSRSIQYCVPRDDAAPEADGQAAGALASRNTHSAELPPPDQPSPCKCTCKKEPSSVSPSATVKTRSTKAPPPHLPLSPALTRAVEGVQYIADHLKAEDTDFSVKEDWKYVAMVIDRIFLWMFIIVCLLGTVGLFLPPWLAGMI
Chain of nAChR(a4/b2) (P17787 26-502): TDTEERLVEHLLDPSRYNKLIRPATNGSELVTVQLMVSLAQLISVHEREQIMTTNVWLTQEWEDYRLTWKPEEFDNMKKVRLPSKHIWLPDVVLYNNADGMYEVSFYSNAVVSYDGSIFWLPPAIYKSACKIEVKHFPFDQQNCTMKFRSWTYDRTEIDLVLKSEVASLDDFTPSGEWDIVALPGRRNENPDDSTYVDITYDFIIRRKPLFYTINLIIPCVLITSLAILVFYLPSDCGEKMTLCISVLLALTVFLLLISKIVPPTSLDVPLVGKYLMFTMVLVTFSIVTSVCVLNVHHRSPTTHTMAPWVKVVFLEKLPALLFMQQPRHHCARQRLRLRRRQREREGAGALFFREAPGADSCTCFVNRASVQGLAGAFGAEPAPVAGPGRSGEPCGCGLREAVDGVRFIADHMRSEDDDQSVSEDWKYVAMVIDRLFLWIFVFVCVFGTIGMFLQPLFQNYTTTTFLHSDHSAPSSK
From the text: as §1

KvLQT1/minK = KvLQT1/minK (Homo sapiens, UniProt P51787); test: SAFETYScan Ion Channel, Opener; format: cell-based
Chain of KvLQT1/minK (P51787 whole entry): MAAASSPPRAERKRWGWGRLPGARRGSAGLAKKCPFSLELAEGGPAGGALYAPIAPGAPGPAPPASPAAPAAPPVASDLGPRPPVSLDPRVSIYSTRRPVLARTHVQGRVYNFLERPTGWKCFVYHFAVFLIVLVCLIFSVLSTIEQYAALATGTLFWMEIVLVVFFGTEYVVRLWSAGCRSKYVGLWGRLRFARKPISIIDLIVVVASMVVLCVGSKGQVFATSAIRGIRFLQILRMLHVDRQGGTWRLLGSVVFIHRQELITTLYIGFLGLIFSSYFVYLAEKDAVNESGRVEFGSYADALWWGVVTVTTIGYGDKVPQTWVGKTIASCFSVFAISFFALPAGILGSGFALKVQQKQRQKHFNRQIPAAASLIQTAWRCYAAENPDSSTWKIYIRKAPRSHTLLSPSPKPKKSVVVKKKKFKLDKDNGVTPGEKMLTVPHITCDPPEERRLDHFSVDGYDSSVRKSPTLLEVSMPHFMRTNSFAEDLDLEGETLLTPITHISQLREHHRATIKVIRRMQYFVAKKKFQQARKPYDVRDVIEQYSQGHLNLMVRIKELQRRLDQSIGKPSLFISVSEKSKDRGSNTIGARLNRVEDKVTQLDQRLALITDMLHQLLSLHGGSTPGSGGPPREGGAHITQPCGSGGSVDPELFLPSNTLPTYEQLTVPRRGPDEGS
From the text: as §1

NMDAR (1A/2B) = NMDAR (1A/2B) (Homo sapiens, UniProt Q05586+Q13224); test: SAFETYScan Ion Channel, Opener; format: cell-based
Chain of NMDAR (1A/2B) (Q13224 27-1484, other chains not shown): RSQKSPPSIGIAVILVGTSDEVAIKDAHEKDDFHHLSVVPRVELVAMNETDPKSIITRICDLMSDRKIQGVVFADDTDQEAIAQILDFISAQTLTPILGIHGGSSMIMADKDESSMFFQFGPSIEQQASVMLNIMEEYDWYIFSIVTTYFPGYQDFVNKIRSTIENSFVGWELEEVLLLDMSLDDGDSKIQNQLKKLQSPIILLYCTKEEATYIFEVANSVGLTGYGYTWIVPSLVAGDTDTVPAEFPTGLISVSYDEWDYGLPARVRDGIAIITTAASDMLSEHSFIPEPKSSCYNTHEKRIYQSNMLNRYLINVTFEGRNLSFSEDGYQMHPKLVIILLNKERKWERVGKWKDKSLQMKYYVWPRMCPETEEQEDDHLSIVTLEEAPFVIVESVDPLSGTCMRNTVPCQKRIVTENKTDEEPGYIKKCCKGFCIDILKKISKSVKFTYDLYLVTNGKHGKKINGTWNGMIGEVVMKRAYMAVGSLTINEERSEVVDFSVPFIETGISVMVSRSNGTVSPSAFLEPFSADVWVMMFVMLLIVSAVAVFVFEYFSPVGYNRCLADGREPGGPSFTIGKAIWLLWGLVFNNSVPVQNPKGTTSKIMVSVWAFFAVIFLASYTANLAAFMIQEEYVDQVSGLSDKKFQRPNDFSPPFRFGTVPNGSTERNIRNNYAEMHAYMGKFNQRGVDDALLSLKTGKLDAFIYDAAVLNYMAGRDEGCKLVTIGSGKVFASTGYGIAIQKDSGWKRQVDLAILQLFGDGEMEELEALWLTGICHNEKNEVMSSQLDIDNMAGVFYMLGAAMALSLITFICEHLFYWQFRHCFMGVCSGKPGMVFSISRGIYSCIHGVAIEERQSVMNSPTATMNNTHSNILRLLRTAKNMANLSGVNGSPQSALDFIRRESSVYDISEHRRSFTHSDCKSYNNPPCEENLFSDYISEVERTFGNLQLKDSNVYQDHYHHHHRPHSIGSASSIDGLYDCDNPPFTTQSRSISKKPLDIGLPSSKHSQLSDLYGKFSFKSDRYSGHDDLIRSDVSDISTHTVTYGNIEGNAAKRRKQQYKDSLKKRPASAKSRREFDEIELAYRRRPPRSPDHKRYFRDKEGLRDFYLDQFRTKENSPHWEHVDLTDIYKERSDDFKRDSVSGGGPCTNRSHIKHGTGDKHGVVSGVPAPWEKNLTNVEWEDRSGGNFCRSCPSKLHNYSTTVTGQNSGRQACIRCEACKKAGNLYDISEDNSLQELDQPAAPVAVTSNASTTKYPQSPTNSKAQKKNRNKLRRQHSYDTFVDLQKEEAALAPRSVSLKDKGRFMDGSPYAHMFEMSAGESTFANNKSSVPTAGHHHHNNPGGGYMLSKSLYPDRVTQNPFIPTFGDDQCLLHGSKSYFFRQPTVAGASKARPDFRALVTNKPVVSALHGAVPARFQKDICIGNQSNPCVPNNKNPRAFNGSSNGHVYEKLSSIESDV
From the text: as §1

in vitro = in vitro ADME; settings: pH 7.4, 10 µM, 16 h at 30 °C
GR = molecular target: T2, GR (Homo sapiens, UniProt P04150); test: SAFETYScan NHR Protein Interaction, Agonist; format: cell-based
T2 sequence (P04150 1-777): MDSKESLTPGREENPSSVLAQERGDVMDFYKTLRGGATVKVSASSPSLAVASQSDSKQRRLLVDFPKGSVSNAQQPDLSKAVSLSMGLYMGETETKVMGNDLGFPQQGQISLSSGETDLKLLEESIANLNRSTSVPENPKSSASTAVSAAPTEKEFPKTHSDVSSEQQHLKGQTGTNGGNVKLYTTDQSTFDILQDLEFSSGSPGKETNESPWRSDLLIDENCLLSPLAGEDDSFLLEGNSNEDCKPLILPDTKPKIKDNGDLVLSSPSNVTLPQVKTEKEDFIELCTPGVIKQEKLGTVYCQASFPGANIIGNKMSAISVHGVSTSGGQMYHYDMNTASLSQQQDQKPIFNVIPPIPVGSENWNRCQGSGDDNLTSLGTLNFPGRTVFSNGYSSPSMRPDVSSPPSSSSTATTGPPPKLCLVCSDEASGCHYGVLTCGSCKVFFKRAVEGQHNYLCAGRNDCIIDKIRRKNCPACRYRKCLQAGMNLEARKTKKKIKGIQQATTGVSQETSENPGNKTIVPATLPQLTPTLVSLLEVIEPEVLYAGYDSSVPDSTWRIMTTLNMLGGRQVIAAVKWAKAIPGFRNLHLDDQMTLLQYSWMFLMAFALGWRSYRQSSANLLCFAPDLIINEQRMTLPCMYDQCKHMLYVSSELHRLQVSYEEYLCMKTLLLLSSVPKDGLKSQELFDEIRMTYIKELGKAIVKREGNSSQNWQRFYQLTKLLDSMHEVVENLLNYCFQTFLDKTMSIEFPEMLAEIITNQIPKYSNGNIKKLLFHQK
From the text: as §1

kinases (468) [1] = molecular target: kinases (468) (Homo sapiens, UniProt P27037); settings: ACVR2A; 1000 nM
kinases (468) [2] = molecular target: kinases (468) (Homo sapiens, UniProt P29320); settings: EPHA3; 1000 nM
kinases (468) [3] = molecular target: kinases (468) (Homo sapiens, UniProt Q8TD19); settings: NEK9; 1000 nM
kinases (468) [4] = molecular target: kinases (468) (Homo sapiens, UniProt P24941); settings: CDK2; 1000 nM
kinases (468) [5] = molecular target: kinases (468) (Homo sapiens, UniProt P00533, DEL746-750); settings: EGFR(E746-A750del); 1000 nM
kinases (468) [6] = molecular target: kinases (468) (Homo sapiens, UniProt Q8WTQ7); settings: GRK7; 1000 nM
kinases (468) [7] = molecular target: kinases (468) (Homo sapiens, UniProt Q86YV6); settings: MYLK4; 1000 nM
kinases (468) [8] = molecular target: kinases (468) (Homo sapiens, UniProt Q04771); settings: ACVR1; 1000 nM
kinases (468) [9] = molecular target: kinases (468) (Homo sapiens, UniProt Q92918); settings: HPK1 (MAP4K1); 1000 nM
Chain of kinases (468) (Homo sapiens, UniProt Q92918) (Q92918 whole entry): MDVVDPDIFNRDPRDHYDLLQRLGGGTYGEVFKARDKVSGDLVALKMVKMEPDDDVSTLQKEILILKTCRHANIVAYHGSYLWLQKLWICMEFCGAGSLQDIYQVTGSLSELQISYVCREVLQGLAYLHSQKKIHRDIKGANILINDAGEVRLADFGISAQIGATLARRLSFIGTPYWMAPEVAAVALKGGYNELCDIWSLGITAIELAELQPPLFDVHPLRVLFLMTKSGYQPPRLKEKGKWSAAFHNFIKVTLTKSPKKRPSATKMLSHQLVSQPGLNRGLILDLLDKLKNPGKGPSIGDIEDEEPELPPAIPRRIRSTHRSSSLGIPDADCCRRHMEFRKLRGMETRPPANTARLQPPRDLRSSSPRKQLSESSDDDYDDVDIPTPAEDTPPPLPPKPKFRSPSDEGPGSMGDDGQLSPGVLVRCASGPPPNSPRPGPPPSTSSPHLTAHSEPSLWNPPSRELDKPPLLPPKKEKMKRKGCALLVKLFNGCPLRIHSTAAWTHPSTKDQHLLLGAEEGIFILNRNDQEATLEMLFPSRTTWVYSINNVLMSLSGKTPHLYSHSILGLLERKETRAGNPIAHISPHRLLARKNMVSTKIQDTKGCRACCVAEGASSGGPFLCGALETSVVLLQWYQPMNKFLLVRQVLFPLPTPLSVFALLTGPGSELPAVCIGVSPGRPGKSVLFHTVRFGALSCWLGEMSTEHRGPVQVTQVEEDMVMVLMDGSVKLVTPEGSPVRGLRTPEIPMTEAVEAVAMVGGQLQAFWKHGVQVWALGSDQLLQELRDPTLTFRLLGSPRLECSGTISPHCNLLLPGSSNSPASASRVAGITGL

kinases (468) [10] = molecular target: kinases (468) (Homo sapiens, UniProt P43405); settings: kinase SYK (Entrez SYK); compound concentration 1000 nM
kinases (468) [11] = molecular target: kinases (468) (Homo sapiens, UniProt O75914); settings: PAK3; 1000 nM
kinases (468) [12] = molecular target: kinases (468) (Homo sapiens, UniProt P51451); settings: BLK; 1000 nM
Chain of kinases (468) (Homo sapiens, UniProt P51451) (P51451 whole entry): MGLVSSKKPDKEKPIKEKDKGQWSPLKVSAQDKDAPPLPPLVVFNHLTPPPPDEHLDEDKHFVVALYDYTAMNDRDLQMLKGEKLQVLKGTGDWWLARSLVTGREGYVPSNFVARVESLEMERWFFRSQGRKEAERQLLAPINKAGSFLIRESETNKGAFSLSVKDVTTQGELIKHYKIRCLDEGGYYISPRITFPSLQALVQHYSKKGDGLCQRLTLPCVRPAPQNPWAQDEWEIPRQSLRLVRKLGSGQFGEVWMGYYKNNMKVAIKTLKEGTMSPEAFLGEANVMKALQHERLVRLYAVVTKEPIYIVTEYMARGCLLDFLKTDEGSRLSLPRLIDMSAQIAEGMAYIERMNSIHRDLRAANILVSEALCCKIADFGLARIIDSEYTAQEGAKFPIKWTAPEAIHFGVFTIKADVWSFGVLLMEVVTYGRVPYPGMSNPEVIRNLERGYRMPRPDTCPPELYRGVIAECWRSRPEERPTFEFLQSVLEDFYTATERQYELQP

kinases (468) [13] = molecular target: kinases (468) (Homo sapiens, UniProt P78368); settings: CSNK1G2; 1000 nM
kinases (468) [14] = molecular target: kinases (468) (Homo sapiens, UniProt P51817); settings: PRKX; 1000 nM
Chain of kinases (468) (Homo sapiens, UniProt P51817) (P51817 whole entry): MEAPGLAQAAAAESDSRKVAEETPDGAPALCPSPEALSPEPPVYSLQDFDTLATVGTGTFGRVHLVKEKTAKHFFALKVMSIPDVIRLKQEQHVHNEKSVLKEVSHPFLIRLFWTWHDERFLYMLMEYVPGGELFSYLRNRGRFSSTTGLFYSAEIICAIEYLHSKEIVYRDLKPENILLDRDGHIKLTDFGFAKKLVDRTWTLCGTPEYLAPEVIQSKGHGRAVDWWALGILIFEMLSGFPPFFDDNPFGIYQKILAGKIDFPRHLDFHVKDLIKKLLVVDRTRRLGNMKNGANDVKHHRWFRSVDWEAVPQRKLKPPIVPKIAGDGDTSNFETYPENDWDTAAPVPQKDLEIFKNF

kinases (468) [15] = molecular target: kinases (468) (Homo sapiens, UniProt P32298); settings: GRK4; 1000 nM

Structure (SMILES): C[C@H]1C[C@@H](O)CN(c2ncc(Cl)c(Nc3ccc4c(c3)c3c(c(=O)n4C)OCC(F)(F)[C@H](C4CC4)N3)n2)C1 [12a CCT373566, (S)-10-((5-Chloro-2-((3R,5S)-3-hydroxy-5-methylpiperidin-1-yl)pyrimidin-4-yl)amino)-2-cyclopropyl-3,3-difluoro-7-methyl-1,2,3,4-tetrahydro-[1,4]oxazepino[2,3-c]quinolin-6(7H)-one]
- Emax (GABAA): 4.81%
- Emax (HTR3A; read-out: Max Response): 1.5%
- EC50 (HTR3A; read-out: RC50 (EC50)): > 10 µM
- Emax (nAChR(a4/b2); read-out: Max Response): 0%
- EC50 (nAChR(a4/b2); read-out: RC50 (EC50)): > 10 µM
- Emax (KvLQT1/minK; read-out: Max Response): 3.79%
- EC50 (KvLQT1/minK; read-out: RC50 (EC50)): > 10 µM
- Emax (NMDAR (1A/2B); read-out: Max Response): 1.31%
- EC50 (NMDAR (1A/2B); read-out: RC50 (EC50)): > 10 µM
- PAMPA (pH 7.4) (in vitro): 24 ×10–6 cm s–1
- Emax (GR; read-out: Max Response): 0.05%
- EC50 (GR; read-out: RC50 (EC50)): > 10 µM

Structure (SMILES): C[C@H]1C[C@@H](O)CN(c2ncc(Cl)c(Nc3ccc4c(c3)c3c(c(=O)n4C)OCC(F)(F)[C@H](C4CC4)N3)n2)C1 [CCT373566_9A]
- Percent Control (kinases (468) [1]): 82%
- Percent Control (kinases (468) [2]): 85%
- Percent Control (kinases (468) [3]): 95%
- Percent Control (kinases (468) [4]): 96%
- Percent Control (kinases (468) [5]): 100%
- Percent Control (kinases (468) [6]): 96%
- Percent Control (kinases (468) [7]): 100%
- Percent Control (kinases (468) [8]): 85%
- Percent Control (kinases (468) [9]): 82%
- Percent Control (kinases (468) [10]): 98%
- Percent Control (kinases (468) [11]): 99%
- Percent Control (kinases (468) [12]): 99%
- Percent Control (kinases (468) [13]): 99%
- Percent Control (kinases (468) [14]): 100%
- Percent Control (kinases (468) [15]): 91%
